Test [1] has as its system smokers (craving for nicotine). Particulars: cited from earlier work; for time after first administration at which the effect starts to wear off / duration of nicotine craving relief: after injection.
Test [2] concerns smoker (craving for nicotine). Nature of the test: Treatment of smokers with corticotrophin injection to reduce craving for nicotine (case examples). Format: in vivo, human. The source says: Referring to the FIG. a suitable and preferred process for the treatment of smokers includes nutritional and relaxant supplements, corticotrophin administration, and counseling. On day one, the smoker comes into a clinic for orientation 10. At the time of the first office visit, a medical history is taken and a physical given 12 is taken by the physician, and a determination is made as to whether a given smoker is a satisfactory candidate for treatment 14. […] If the smoker is allowed to participate in the program, the physician will write a prescription of r the needed medications. Then, immediately before the smoker leaves the clinic, a pharmacist fills their prescription for and dispenses to the smoker their supply of nutrition supplements and mild relaxants 16. The next day, day two, the smoker has the first BMS 18. Then on day three the smoker comes back to the clinic and receives the first injection of corticotrophins 20 from the physician. This is the time and place the smoker gives up smoking 22. On day five the smoker participates in a second BMS 24. On day seven, the smoker returns to receive the second injection of corticotrophins 26 from the physician. On day fourteen the smoker, now presumably a former smoker, returns for the last BMS 28. […]

Like-named read-outs stand apart in the source and are kept apart here.

Results on one substance are retold here after patent publication US6630449B2, “Method for reducing the effect of nicotine addiction and dependancy” (priority 2000, dated 2003).

Consider Adrenocorticotrophin hormone, for which the “time after first administration at which the effect starts to wear off / duration of nicotine craving relief” value in test [1] (listed as Corticotrophins) is “fifty and one hundred”; in test [1] (listed as corticotrophins) it was “About seventy two”. Moreover, in test [1] (given to smokers intramuscularly), the “effect on craving for nicotine” value was “dramatically reduce the craving for nicotine”. In addition, the “patients who start smoking again” value in test [1] (one administration (Bourne treatment), after about thirty days) was “thirty to sixty”. The “duration of reduced cravings for nicotine after one administration” value in test [1] (one administration (Bourne treatment)) is on record as “thirty”. Besides, the smoking cessation outcome in test [2] (about 250 pounds, three packs a day, one injection of 160 units with counseling and nutritional supplements, no second injection) is “ceased smoking permanently”; in test [2] (comparative example, about 170 pounds, over one pack a day, one injection of 160 units, no appropriate counseling), “resumed smoking”.
